# Measurements published in patent US8858988B2, “Compositions comprising extracts of Boswellia, tea tree, aloe and lavender oil and methods of treating wounds, burns and skin injuries therewith” (CuraPhyte Technologies Inc., priority 2009, dated 2014).
# Marks after values point to notes of the source that are not given here.
# Tested on: mouse cutaneous injury model
# Experiment: Wound healing in mouse cutaneous injury model
# Format: in vivo
# Conditions: TOP
# Procedure: Animal model: Groups of 8 ICR male mice weighing 22±2 g were used. Under ether anesthesia, the shoulder and back region of each animal was shaved. A sharp punch (ID 12 mm) was used to remove the skin including panniculus carnosus and adherent tissues. The wound area, traced onto clear plastic sheets on days 3, 5, 7, 9 and 11, were quantitated by use of an Image Analyzer (Life Science Resources VISTA, Version 30). Test compound and vehicle (20 μl, 1.5% carboxymethylcellulose in PBS) were applied topically immediately following injury and in single, two or three applications daily thereafter for a total of 10 consecutive days. The wound half-closure time (CT50) was determined and unpaired Student's t test was applied for comparison between treated and vehicle group at each measurement time point. Differences are considered statistical significance at P<0.05. CGS-21680 ((2-p-carboxyethyl)phenylamino-5′-N-carboxamidoadenosine) was used as a positive comparator. Test substance C-T-1001 (Ointment A: herbal active ingredients tea tree oil, boswellia resin, aloe vera gel and lavender oil) was evaluated for possible wound healing activity. The test substance was applied topically to the wound area once, twice, or three times daily for 10 consecutive days. Percent closure of the wound (%) was determined on days 3, 5, 7, 9 and 11 in order to generate the half closure time (CT50). One-way ANOVA followed by Dunnett's test was used to determine significant difference between the treated groups and vehicle control.
smiles,measurement,setting,value
CCNC(=O)[C@H]1O[C@@H](n2cnc3c(N)nc(NCCc4ccc(CCC(=O)O)cc4)nc32)[C@H](O)[C@@H]1O [CGS-21680],The Closure of Wound (%) Day 3,"10 μg/mouse × 10, Day 3, mean (X)",42.4* %
same,The Closure of Wound (%) Day 5,"10 μg/mouse × 10, Day 5, mean (X)",56.3* %
same,The Closure of Wound (%) Day 7,"10 μg/mouse × 10, Day 7, mean (X)",66.8* %
same,The Closure of Wound (%) Day 9,"10 μg/mouse × 10, Day 9, mean (X)",74.3* %
same,The Closure of Wound (%) Day 11,"10 μg/mouse × 10, Day 11, mean (X)",81.7* %
same,"CT50 (Days), wound half-closure time","10 μg/mouse × 10, mean (X)",5.5* Days
